Data published in patent publication US10759783B2, “Biaryl inhibitors of Bruton'S tyrosine kinase” (BIOGEN MA INC., priority 2013, dated 2020).
pIC50: −log10 of the molar value. Like-named read-outs stand apart in the source and are kept apart here.

Columns and labels:
[1] = target: T1, BTK enzyme (Homo sapiens, UniProt Q06187); experiment: In vitro BTK kinase assay: BTK-POLYGAT-LS assay; type: biochemical; conditions: ATP 10 μM, read-out: IC50 (10uMATP)
T1 construct: purchased Upstate 14-552
Procedure, shortened: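 Human BTK activity was measured with final 10 μM ATP and 100 nM polyGAT substrate in pH 7.5 Tris buffer with 10 mM MgCl2, DTT, Triton X-100 and casein.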

[2] = target: BTK (phospho-BTK) in human whole blood (Homo sapiens, UniProt Q06187); experiment: In vitro PD assay in human whole blood (pBTK assay)
Chain of BTK (phospho-BTK) in human whole blood (Q06187 whole entry): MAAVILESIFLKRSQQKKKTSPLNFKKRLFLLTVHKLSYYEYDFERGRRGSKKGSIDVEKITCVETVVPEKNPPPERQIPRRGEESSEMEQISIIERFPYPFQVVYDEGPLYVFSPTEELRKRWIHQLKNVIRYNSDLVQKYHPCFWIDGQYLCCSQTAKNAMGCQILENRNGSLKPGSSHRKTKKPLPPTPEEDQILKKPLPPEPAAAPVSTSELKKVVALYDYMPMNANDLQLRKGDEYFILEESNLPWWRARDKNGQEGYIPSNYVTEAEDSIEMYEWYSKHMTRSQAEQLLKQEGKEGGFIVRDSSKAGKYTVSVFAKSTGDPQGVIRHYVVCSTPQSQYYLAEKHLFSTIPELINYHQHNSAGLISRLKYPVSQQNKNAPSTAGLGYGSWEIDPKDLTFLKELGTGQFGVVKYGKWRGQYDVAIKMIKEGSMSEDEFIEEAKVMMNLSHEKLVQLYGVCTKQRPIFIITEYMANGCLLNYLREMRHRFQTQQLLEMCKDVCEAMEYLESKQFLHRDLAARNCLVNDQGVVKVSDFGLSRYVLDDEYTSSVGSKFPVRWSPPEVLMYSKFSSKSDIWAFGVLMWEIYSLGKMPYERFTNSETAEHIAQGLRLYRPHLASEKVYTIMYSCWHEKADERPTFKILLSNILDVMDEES

T1 sequence (Q06187 whole entry): as above

| SMILES | pIC50 [1] | pIC50 [2] | pIC50 ([2]; read-out: pBTK IC50, human whole blood, 37° C. for 30 min) |
| --- | --- | --- | --- |
| CN1CC(n2cc(Nc3nccc(-c4ccc(CNC(=O)N5CC(OC(C)(C)C)C5)c(C(F)(F)F)c4)n3)cn2)C1 [Example I-206, 3-(tert-butoxy)-N-(4-(2-((1-(1-methylazetidin-3-yl)-1H-pyrazol-4-yl)amino)pyrimidin-4-yl)-2-(trifluoromethyl)benzyl)azetidine-1-carboxamide] | > 8.00 | > 6.30 | – |
| Cc1cc(-c2cc(Nc3cc4n(n3)CCS(=O)(=O)C4)ncn2)ccc1CNC(=O)c1cnn(C(C)(C)C)c1 [Example I-242, 1-(tert-butyl)-N-(4-(6-((5,5-dioxido-6,7-dihydro-4H-pyrazolo[5,1-c][1,4]thiazin-2-yl)amino)pyrimidin-4-yl)-2-methylbenzyl)-1H-pyrazole-4-carboxamide] | > 8.00 | > 6.30 | – |
| Cc1cc(-c2cc(Nc3ccc(N4CCN(C)CC4)cn3)ncn2)ccc1CNC(=O)c1cnn(C(C)(C)C)c1 [Example I-225, 1-(tert-butyl)-N-(2-methyl-4-(6-((5-(4-methylpiperazin-1-yl)pyridin-2-yl)amino)pyrimidin-4-yl)benzyl)-1H-pyrazole-4-carboxamide] | > 8.00 | > 6.30 | – |
| Cc1cc(-c2ccnc(Nc3cnn(C4CN(C)C4)c3)n2)ccc1CNC(=O)N1CC(OC(C)C)C1 [Example I-218, 3-isopropoxy-N-(2-methyl-4-(2-((1-(1-methylazetidin-3-yl)-1H-pyrazol-4-yl)amino)pyrimidin-4-yl)benzyl)azetidine-1-carboxamide] | > 8.00 | > 6.30 | – |
| Cc1cc(-c2ccnc(Nc3cnn(C)c3)n2)ccc1CNC(=O)c1nc2c(s1)CCCC2 [Example I-9, N-(2-methyl-4-(2-((1-methyl-1H-pyrazol-4-yl)amino)pyrimidin-4-yl)benzyl)-4,5,6,7-tetrahydrobenzo[d]thiazole-2-carboxamide] | > 8.00 | 5.82 to 6.30 | – |
| Cc1cc(-c2ccnc(Nc3cnn(C(C)(C)C(=O)NCC(F)(F)F)c3)n2)ccc1CNC(=O)N1CC(OC(C)C)C1 [Example I-312, N-[[4-[2-[[1-[1,1-dimethyl-2-oxo-2-(2,2,2-trifluoroethylamino)ethyl]pyrazol-4-yl]amino]pyrimidin-4-yl]-2-methyl-phenyl]methyl]-3-isopropoxy-azetidine-1-carboxamide] | > 8.00 | > 6.30 | – |
| COCCn1cc(Nc2nccc(-c3ccc4c(c3)CCCCC4NC(=O)N3CC(OC(C)C)C3)n2)cn1 (stereo not drawn) [Example I-171, 3-isopropoxy-N-(2-(2-((1-(2-methoxyethyl)-1H-pyrazol-4-yl)amino)pyrimidin-4-yl)-6,7,8,9-tetrahydro-5H-benzo[7]annulen-5-yl)azetidine-1-carboxamide] | > 8.00 | > 6.30 | – |
| CC(C)OC1CN(C(=O)NC2CCN(C=O)Cc3cc(-c4ccnc(Nc5cnn(C)c5)n4)ccc32)C1 (stereo not drawn) [Example I-329, N-[2-formyl-8-[2-[(1-methylpyrazol-4-yl)amino]pyrimidin-4-yl]-1,3,4,5-tetrahydro-2-benzazepin-5-yl]-3-isopropoxy-azetidine-1-carboxamide] | > 8.00 | > 6.30 | – |
| Cc1cc(-c2ccnc(Nc3cnn([C@@H]4CCNC[C@H]4F)c3)n2)ccc1CNC(=O)N1CC(OC(C)C)C1 (relative stereo) [Example I-220] | > 8.00 | – | > 6.30 |
| CC(C)OC1CN(C(=O)N[C@@H]2CCCCc3cc(-c4ccnc(Nc5cnn(CCO)c5)n4)ccc32)C1 [Example I-169, (R)—N-(2-(2-((1-(2-hydroxyethyl)-1H-pyrazol-4-yl)amino)pyrimidin-4-yl)-6,7,8,9-tetrahydro-5H-benzo[7]annulen-5-yl)-3-isopropoxyazetidine-1-carboxamide] | > 8.00 | > 6.30 | – |
| Cc1cc(-c2ccnc(Nc3ccc(N4CCN(C)CC4)cn3)c2)ccc1CNC(=O)c1cnc(C(C)(C)C)s1 [Example I-70, 2-(tert-butyl)-N-(2-methyl-4-(2-((5-(4-methylpiperazin-1-yl)pyridin-2-yl)amino)pyridin-4-yl)benzyl)thiazole-5-carboxamide] | > 8.00 | > 6.30 | – |
| Cn1cc(Nc2nccc(-c3ccc4c(c3)CCCC4NC(=O)N3CC(OC(C)(C)C)C3)n2)cn1 (stereo not drawn) [Example I-359, 3-tert-butoxy-N-[6-[2-[(1-methylpyrazol-4-yl)amino]pyrimidin-4-yl]tetralin-1-yl]azetidine-1-carboxamide] | > 8.00 | > 6.30 | – |
| CC(C)(C)OC1CN(C(=O)NCc2ccc(-c3ccnc(Nc4cnn(CCO)c4)n3)cc2C(F)(F)F)C1 [Example I-205, 3-(tert-butoxy)-N-(4-(2-((1-(2-hydroxyethyl)-1H-pyrazol-4-yl)amino)pyrimidin-4-yl)-2-(trifluoromethyl)benzyl)azetidine-1-carboxamide] | > 8.00 | > 6.30 | – |
| Cc1c(Nc2nccc(-c3ccc(CNC(=O)N4CCC(C(C)(C)C)C4)c(CCO)c3)n2)cnn1C (stereo not drawn) [Example I-321, 3-tert-butyl-N-[[4-[2-[(1,5-dimethylpyrazol-4-yl)amino]pyrimidin-4-yl]-2-(2-hydroxyethyl)phenyl]methyl]pyrrolidine-1-carboxamide] | > 8.00 | > 6.30 | – |
| Cn1cc(Nc2nccc(-c3ccc(CNC(=O)c4cnn(C(C)(C)C)c4)c(C(F)(F)F)c3)n2)cn1 [Example I-202, 1-(tert-butyl)-N-(4-(2-((1-methyl-1H-pyrazol-4-yl)amino)pyrimidin-4-yl)-2-(trifluoromethyl)benzyl)-1H-pyrazole-4-carboxamide] | > 8.00 | > 6.30 | – |
| COCCc1cc(-c2ccnc(Nc3cnn(C)c3)n2)ccc1CNC(=O)N1CCC(C(C)(C)C)C1 (stereo not drawn) [Example I-320, 3-tert-butyl-N-[[2-(2-methoxyethyl)-4-[2-[(1-methylpyrazol-4-yl)amino]pyrimidin-4-yl]phenyl]methyl]pyrrolidine-1-carboxamide] | > 8.00 | > 6.30 | – |

Other lines, results leading:

| pIC50 [1] | pIC50 [2] | pIC50 ([2]; read-out: pBTK IC50, human whole blood, 37° C. for 30 min) | SMILES |
| --- | --- | --- | --- |
| > 8.00 | > 6.30 | – | Cc1cc(-c2ccnc(Nc3cnn(C(C)C)c3)n2)ccc1CNC(=O)c1cnn(C(C)(C)C)c1 [Example I-258, 1-tert-butyl-N-[[4-[2-[(1-isopropylpyrazol-4-yl)amino]pyrimidin-4-yl]-2-methyl-phenyl]methyl]pyrazole-4-carboxamide] |
| > 8.00 | 5.00 to 5.82 | – | Cc1cc(-c2ccnc(Nc3cc4n(n3)CCN(C)C4)n2)ccc1CNC(=O)c1cnc(C(C)(C)C)s1 [Example I-55, 2-(tert-butyl)-N-(2-methyl-4-(2-((5-methyl-4,5,6,7-tetrahydropyrazolo[1,5-a]pyrazin-2-yl)amino)pyrimidin-4-yl)benzyl)thiazole-5-carboxamide] |
| > 8.00 | > 6.30 | – | Cc1cc(-c2ccnc(Nc3cnn(C)c3)n2)ccc1CNC(=O)N1CC[C@@H](C(C)(C)C)C1 [Example I-254] |
| > 8.00 | > 6.30 | – | Cc1cc(-c2cc(Nc3ccn(C4CCN(C)CC4)n3)ncn2)ccc1CNC(=O)c1cnc(C(C)(C)C)s1 [Example I-358, 2-tert-butyl-N-[[2-methyl-4-[6-[[1-(1-methyl-4-piperidyl)pyrazol-3-yl]amino]pyrimidin-4-yl]phenyl]methyl]thiazole-5-carboxamide] |
| > 8.00 | > 6.30 | – | Cc1cc(-c2ccnc(Nc3cnn4c3CCC4)n2)ccc1CNC(=O)c1cnc(C(C)(C)C)s1 [Example I-315, 2-tert-butyl-N-[[4-[2-(5,6-dihydro-4H-pyrrolo[1,2-b]pyrazol-3-ylamino)pyrimidin-4-yl]-2-methyl-phenyl]methyl]thiazole-5-carboxamide] |
| > 8.00 | 5.00 to 5.82 | – | Cc1cc(-c2ccnc(Nc3ccc(N4CCN(C)CC4)cn3)n2)ccc1CNC(=O)c1cnc(C(C)(C)C)s1 [Example I-62, 2-(tert-butyl)-N-(2-methyl-4-(2-((5-(4-methylpiperazin-1-yl)pyridin-2-yl)amino)pyrimidin-4-yl)benzyl)thiazole-5-carboxamide] |
| > 8.00 | > 6.30 | – | CCn1cc(Nc2nccc(-c3ccc(CNC(=O)N4CCC(C(C)(C)C)C4)c(C)c3)n2)cn1 (stereo not drawn) [Example I-305, 3-tert-butyl-N-[[4-[2-[(1-ethylpyrazol-4-yl)amino]pyrimidin-4-yl]-2-methyl-phenyl]methyl]pyrrolidine-1-carboxamide] |
| > 8.00 | 5.82 to 6.30 | – | Cc1cc(-c2ccnc(Nc3cnn(C[C@H](O)CN)c3)n2)ccc1CNC(=O)c1cnc(C(C)(C)C)s1 [Example I-127, (R)—N-(4-(2-((1-(3-amino-2-hydroxypropyl)-1H-pyrazol-4-yl)amino)pyrimidin-4-yl)-2-methylbenzyl)-2-(tert-butyl)thiazole-5-carboxamide] |
| > 8.00 | > 6.30 | – | Cc1cc(-c2ccnc(Nc3cnn([C@@H]4CCNC4)c3)n2)ccc1CNC(=O)c1cnc(C(C)(C)C)s1 [Example I-122, (R)-2-(tert-butyl)-N-(2-methyl-4-(2-((1-(pyrrolidin-3-yl)-1H-pyrazol-4-yl)amino)pyrimidin-4-yl)benzyl)thiazole-5-carboxamide] |
| > 8.00 | 5.82 to 6.30 | – | Cc1cc(-c2ccnc(Nc3cnn(C[C@@H](O)CN)c3)n2)ccc1CNC(=O)c1cnc(C(C)(C)C)s1 [Example I-129, (S)—N-(4-(2-((1-(3-amino-2-hydroxypropyl)-1H-pyrazol-4-yl)amino)pyrimidin-4-yl)-2-methylbenzyl)-2-(tert-butyl)thiazole-5-carboxamide] |
| > 8.00 | 5.82 to 6.30 | – | Cc1cc(-c2ccnc(Nc3cnn(C)c3)n2)ccc1CNC(=O)c1ccc(C(C)(C)C)cc1 [Example I-7, 4-(tert-butyl)-N-(2-methyl-4-(2-((1-methyl-1H-pyrazol-4-yl)amino)pyrimidin-4-yl)benzyl)benzamide] |
